Measured values published in PMC12144510, “SIRT3 Functions as an Eraser of Histone H3K9 Lactylation to Modulate Transcription for Inhibiting the Progression of Esophageal Cancer” (Molecular & Cellular Proteomics : MCP, 2025).
Entries after “also recorded” stand apart in the source; their conditions may differ.

Legend:
H3K9la in HEK 293T cells = test: H3K9la level after sodium lactate stimulation; format: cell-based, human; conditions: 20 mM sodium lactate, 24 h, Figure S4B
Procedure: Histone was isolated from HEK 293T cells by acid extraction. In short, HEK 293T cells were treated with 20 mM sodium lactate for 24 h and harvested by centrifugation. The harvested HEK 293T cells were resuspended with lysis buffers (10 mM Tris–HCl pH 8.0, 1 mM KCl, 1.5 mM MgCl2, 1 mM DTT, 2 mM PMSF, and Roche Complete EDTA free protease inhibitor) and incubated at 4 °C for 1 h. The intact nuclei were centrifuged at 2000g at 4 °C for 10 min to form pellets. To extract histones, 0.4 M H2SO4 was added to the suspension nucleus and then rotated overnight at 4 °C. After removal of nuclear debris by centrifugation at 10,000g at 4 °C for 10 min, histone was precipitated by adding 100% trichloroacetic acid (trichloroacetic acid final concentration 33%). The precipitated histones were incubated at 4 °C for 10 min and washed with acetone twice. The dried protein particles were dissolved with ddH2O. Subsequently, 4 ∼ 6 μg histone was incubated with 10 μM SIRT3 in 100 μl PBS supplemented by 5 mM NAD^+ at 37 °C for 5 h. The lactylation levels at histone were detected by Western blot.

H3K9la = H3K9la level in cells with SIRT3 inhibitor (Western blot); format: cell-based, human
SIRT3 = test system: SIRT3; set-up: method as in PMID 26120888; conditions: cited from earlier work
KYSE30 cells [1] = test: Cell proliferation / viability (CCK-8); format: cell-based, human; conditions: ESCC cell (KYSE30), CCK-8, n = 8; supplemental Fig. S2G
ESCC cell = test: Colony formation assay; format: cell-based, human
Procedure: The cells (KYSE30 cells with SIRT3 KO and overexpression) to be observed were counted, and 1000 cells/well were inoculated into the 12-well plate culture plate, and the medium was changed every 3 days. About a week after cell culture, the cells were washed twice with PBS and fixed with 1 ml 4% paraformaldehyde for 10 min. The cells were stained with crystal violet solution for 5 to 10 min, and the excess crystal violet solution was washed away with PBS. The formation of cell clones was photographed. The results were analyzed by ImageJ software (v.ImageJ2).
The cells were counted and 1000 cells were inoculated in 6-well plate plates, and the medium was changed every 3 days. After about 1 week of cell culture, the cells were washed twice with PBS and fixed with 1 ml 4% paraformaldehyde for 30 min. Dye crystal violet for 5 to 10 min and then the cells were washed with PBS. The formation of cell clones was photographed and analyzed using ImageJ software.

KYSE30 cells [2] = test: Cell migration (wound healing assay); format: cell-based, human; conditions: n = 8, supplemental Fig. S2H
Procedure: The wound healing assay involved seeding cells in 6-well plates. After the cells (KYSE30 cells with SIRT3 KO and overexpression) were fused, they were scraped off with the tip of the pipette, and the floating cells were washed away with PBS. Immediately afterward, the wounds were photographed. After culture in serum-free medium for 24 h, the wounds were photographed again.

SMILES | H3K9la level (H3K9la in HEK 293T cells) | delactylation of SIRT3 with inhibitor (H3K9la; Figure S2F) | level of H3K9la in cells (H3K9la; compared with dimethyl sulfoxide, supplemental Fig. S2F) | SIRT3 inhibition selectivity (SIRT3) | cell proliferation (KYSE30 cells [1]) | colony formation (ESCC cell) | cell migration ability (KYSE30 cells [2])
CC(O)C(=O)[O-].[Na+] (stereo not shown) [sodium lactate] | increased | – | – | – | – | – | –
c1cncc(-c2cn[nH]n2)c1 [3-TYP] | – | decreasing delactylation | increased H3K9la levels; also recorded: significantly increased | selective SIRT3 inhibitor | significantly increased; also recorded: Increasing efficiencies of proliferation | Increasing efficiencies of proliferation and colony formation | significantly increased
